In paper PMC10333884, “Large‐scale phosphomimetic screening identifies phospho‐modulated motif‐based protein interactions” (Molecular Systems Biology, 2023):
Non-standard residues stand in square brackets, D forms with d. Residues, ends and D or L forms follow the SMILES beside them. pS = N[C@@H](COP(=O)(O)O)C(=O)O

Tests used:
KPNA4 ARM Major = molecular target: T1, KPNA4 ARM Major (Homo sapiens, UniProt O00629); assay: FP displacement assay, KPNA4 ARM major pocket; assay type: binding; conditions: for IC50: Fig 3E, KPNA4 ARM major, technical triplicates, read-out: IC50 values of displacement curves, with SEM; for Kd: major pocket probe FITC-MYC 5 nM, 50 mM sodium phosphate pH 7.4, room temperature, at least three technical replicates, read-out: KD values ± SEM
T1 construct: 60-487; GST (cleaved yes); made in house; host or cells: Escherichia coli BL21-Gold(DE3)
T1 sequence (O00629 60-487): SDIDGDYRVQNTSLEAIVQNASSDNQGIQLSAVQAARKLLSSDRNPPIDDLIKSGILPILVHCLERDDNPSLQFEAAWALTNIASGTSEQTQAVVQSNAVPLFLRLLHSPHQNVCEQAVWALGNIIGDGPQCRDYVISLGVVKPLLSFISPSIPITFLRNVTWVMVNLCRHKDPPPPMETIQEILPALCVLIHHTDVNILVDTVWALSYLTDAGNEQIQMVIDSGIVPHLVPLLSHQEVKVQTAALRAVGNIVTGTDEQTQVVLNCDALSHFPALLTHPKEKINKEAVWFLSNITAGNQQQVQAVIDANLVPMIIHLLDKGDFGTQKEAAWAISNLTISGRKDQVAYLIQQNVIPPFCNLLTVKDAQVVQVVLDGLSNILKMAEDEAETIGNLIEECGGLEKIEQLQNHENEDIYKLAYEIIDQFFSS
Protocol: (§1) FP experiments were performed as described previously (Kliche et al, [2021]). Shortly, in order to monitor the binding event, FITC‐labelled peptides were used (excitation 495 nm, emission: 535 nm) and the FP signal was recorded in mP on a SpectraMax iD5 Multi‐Mode Microplate Reader (Molecular Devices) by measuring the emitted light in two angels. The measurements were performed at room temperature and prepared in nonbinding black half area 96‐well microplates (Corning®; 50 μl/well). For measuring direct binding, that is saturation curves, a 1:1 dilution series of protein domain (25 μl/well) was generated in 50 mM sodium phosphate buffer pH 7.4 and the measurement performed with 5 nM FITC‐labelled peptide (25 μl/well). The buffer‐corrected values were subsequently plotted with PRISM and fitted to the quadratic equation (Gianni et al, [2005]).
(§2) The 1:1 dilution series in this experiment was performed with the unlabelled peptide in 50 mM sodium phosphate buffer pH 7.4, so that each well‐contained unlabelled peptide (25 μl) at a certain concentration and pre‐formed complex (25 μl). The KD values of this indirectly monitored binding event were calculated as described previously (Nikolovska‐Coleska et al, [2004]). All measurements were at least in technical triplicates as well as biological duplicates when indicated. An amplitude shift between repeat measurements in the displacement experiments was occasionally observed due to variations in the protein preparations. If that was the case, the “active” protein concentration was back‐calculated according to the quadratic equation from the saturation curves performed in parallel. By comparing the active protein concentrations in the complex between different protein preparations, the amplitude was normalised.

KPNA4 ARM minor = molecular target: T2, KPNA4 ARM minor (Homo sapiens, UniProt O00629); assay: FP displacement assay, KPNA4 ARM minor pocket; assay type: binding; conditions: for IC50: Fig 3E, KPNA4 ARM minor, technical triplicates, read-out: IC50 values of displacement curves, with SEM; for Kd: minor pocket probe FITC-NCOR2 5 nM, 50 mM sodium phosphate pH 7.4, room temperature, at least three technical replicates, read-out: KD values ± SEM
T2 construct: 60-487; GST (cleaved yes); made in house; host or cells: Escherichia coli BL21-Gold(DE3)
T2 sequence (O00629 60-487): as above
Protocol: as §1, §2

KPNA4 ARM = assay: Phosphomimetic ProP-PD selection, KPNA4 ARM; assay type: binding, human; conditions: phosphomimetic enrichment score of the wild-type/phosphomimetic (E) pair at the phosphosite, PM_HD2 phage selection; same score in the major and minor pocket; P-value in brackets not taken

`CC(=O)N[C@@H](CC(N)=O)C(=O)N[C@@H](Cc1ccc(O)cc1)C(=O)N[C@@H](C)C(=O)N1CCC[C@H]1C(=O)N1CCC[C@H]1C(=O)N[C@H](C(=O)N[C@@H](CCCCN)C(=O)N[C@@H](CCCNC(=N)N)C(=O)N[C@@H](CCC(=O)O)C(=O)N[C@@H](CCCNC(=N)N)C(=O)N[C@H](C(=O)N[C@@H](CCC(=O)O)C(=O)N[C@@H](CO)C(=O)N[C@@H](CC(C)C)C(=O)N[C@H](C(=O)N[C@@H](CCC(N)=O)C(N)=O)[C@@H](C)O)[C@@H](C)O)C(C)C` [RANBP3_114–129 E (p + 6)] (Ac-NYAPPVKRERTESLTQ-NH2) was tested, and the IC50 (KPNA4 ARM Major) was 1.3 ± 0.1 µM, the Kd (KPNA4 ARM Major) was 0.14 ± 0.01 µM and the IC50 (KPNA4 ARM minor) was 385 ± 220 µM. The Kd (KPNA4 ARM minor) was 80 ± 27 µM and the PES (KPNA4 ARM) was −3.1 (0.077).
In the case of `CC(=O)N[C@@H](CC(N)=O)C(=O)N[C@@H](Cc1ccc(O)cc1)C(=O)N[C@@H](C)C(=O)N1CCC[C@H]1C(=O)N1CCC[C@H]1C(=O)N[C@H](C(=O)N[C@@H](CCCCN)C(=O)N[C@@H](CCCNC(=N)N)C(=O)N[C@@H](CCC(=O)O)C(=O)N[C@@H](CCCNC(=N)N)C(=O)N[C@H](C(=O)N[C@@H](COP(=O)(O)O)C(=O)N[C@@H](CO)C(=O)N[C@@H](CC(C)C)C(=O)N[C@H](C(=O)N[C@@H](CCC(N)=O)C(N)=O)[C@@H](C)O)[C@@H](C)O)C(C)C` [RANBP3_114–129 pS (p + 6)] (Ac-NYAPPVKRERT[pS]SLTQ-NH2), the IC50 (KPNA4 ARM Major) is reported as 2 ± 0.5 µM, the Kd (KPNA4 ARM Major) is reported as 0.22 ± 0.03 µM and the IC50 (KPNA4 ARM minor) is reported as 98 ± 7 µM. The Kd (KPNA4 ARM minor) was 20 ± 1 µM.
